Reference: PMC10732398 (PLOS Pathogens, 2023)

Tested on: ⍺4β7
Assay: SPR: inhibition by linear peptides of soluble ⍺4β7 binding to a MAdCAM-Ig surface
Conditions: Fig 7F, 7G
Text: To determine if this is the case, we employed an SPR -based assay. Biosensor surfaces were coated with either CD4 D1D2 or a 42 aa cyclic V2 peptide derived from the subtype E 92TH023 gp120 (cV2 92TH023). A third surface coated with MAdCAM-Ig was employed as a positive control. Soluble ⍺4β7 was passed over these surfaces. We then evaluated the capacity of staggered 15 aa peptides that span either CD4 D2 or gp120 V2 to inhibit this interaction (Fig 7A).
Fig 7 Reciprocal inhibition of gp120 V2 and CD4 binding to ⍺4β7 by D2 and V2 peptides. SPR measurements of soluble ⍺4β7 (analyte) binding to biosensor surfaces coated with CD4 D1D2, 92TH023 cyclic peptide, or MAdCAM-Ig in the absence or presence of either CD4 D2 or gp120 V2 peptides, as indicated. (A) List of overlapping 15 aa peptides corresponding to residues 157–187 of CD4 and residues 158–192 of gp120 V2 (subtype B consensus sequence). (B) Binding of ⍺4β7 to sCD4 D1D2 +/- CD4 D2 peptides. X-axis indicates ⍺4β7 mass bound (RU) at the end of the association phase. (C) Binding of ⍺4β7 to 92TH023 +/- gp120 V2 peptides. (D) Binding of ⍺4β7 to sCD4 D1D2 +/- gp120 V2 peptides. (E) Binding of ⍺4β7 to 92TH023 +/- CD4 D2 peptides. […]
Experiments were performed using a Biacore 3000 instrument (Cytiva Life Sciences) using CM4 or CM5 sensor chips. The data were evaluated using BIAevaluation 4.1.1 software (Cytiva Life Sciences). […]

QKKVEFKIDIVVLA [CD4 P42, linear CD4 D2 peptide, residues 165-178, G β-strand]
inhibition of MAdCAM-Ig binding to ⍺4β7 (in words): inhibit MAdCAM-Ig binding to ⍺4β7
